“Also recorded” adds a separate entry of the source.
Columns and labels:
[1] = tested on: GL261 murine glioma cells; test: GL261 cell growth assay (MTT salt); assay type: cell-based; conditions: 5 μM GlaB, in vitro, starting from 48 h of treatment, N=3, p<0.001
Method: The GL261 murine glioma cells (Leibniz-Institute DMSZ, ACC802) are grown in an incubator at 37° C. and 5% CO2 in a culture medium containing D-MEM (GIBCO), 20% fetal bovine serum (GIBCO), antibiotics (100 IU/ml penicillin G, 100 μg/ml streptomycin, 2.5 μg/ml amphotericin B), 2 mM glutamine and 1 mM pyruvate sodium.
GL261 murine glioma cells were seeded in culture medium in 96-well plates (5000 cells/well). After 4 h they were treated with 5 μM GlaB (C. Ingallina, P. M. Costa, F. Ghirga, R. Klippstein, J. T. Wang, S. Berardozzi, N. Hodgins, P. Infante, S. M. Pollard, B. Botta, K. T. Al-Jamal. Polymeric glabrescione B nanocapsules for passive targeting of Hedgehog-dependent tumor therapy in vitro. Nanomedicine, (2017), 12(7), 711-728. DOI: 10.2217/nnm-2016-0388) or the vehicle in which it is dissolved (DMSO) and every 24 h for three days their growth was evaluated using the dehydrogenation method of MTT salt (3-(4,5-dimetiltiazol-2-yl)-2,5-diphenyltetrazolium bromide, Sigma-Aldrich). The MTT salt was added to each well containing culture medium at the concentration of 0.5 mg/ml, and after 2 h of incubation at 37° C., cell growth was measured by measuring the spectrophotometer, at a wavelength of 570 nm, the absorbance values related to the amount of MTT salt transformed into formazan (insoluble violet-colored salt) simultaneously by live control cells and cells treated with GlaB.

[2] = GlaB brain level concentration by HPLC-ESI-MS after intranasal administration; assay type: in vivo, mice
Method: For HPLC analysis, mice were treated as above and sacrificed two hours post one single nasal administration; brains were collected and frozen (−80° C.) until use.
HPLC analyses were performed on brain samples from mice treated with GlaB/PEG-Cholane. The brain sample (500 mg), previously stored at −80° C. for 24 hours, was homogenized with 1 mL of a Phosphate Buffered Saline solution, PBS, using an ultrasound probe. A solution of ZnSO4 (0.1 M in H2O, 1 mL) and acetonitrile (1 mL) were added to the mixture, which was further homogenized with ultrasound for 15 minutes. Subsequently, the brain homogenate was stirred for 1 hour at room temperature and was then centrifuged at 3000 g for 5 min at T=4° C. The supernatant was collected. The following procedure to obtain a brain extract was repeated twice. Acetonitrile (1 mL) was added to the brain residue, stirred for 30 minutes at room temperature, then centrifuged at 3000 g for 5 min at T=4° C. and the supernatant collected. Brain extracts samples were centrifuged for five minutes at 5000 rpm and 20 μL of supernatant injected into the HPLC without further treatments.
The HPLC chromatographic system used was an UltiMate 3000 RS system (Thermo Fisher Dionex Sunnyvale, Calif.), equipped with an UltiMate 3000 LPG-3400RS Low Pressure Mixing Biocompatible Gradient Pump, an in-line split-loop well plate sampler, a thermostated column ventilated compartment (temperature range: 5-110° C.) and a diode array detector (UltiMate 3000 DAD-3000RS Rapid Separation Diode Array Detector, up to 200 Hz acquisition rate) with a low dispersion 13 μL flow cell. […]
Calibration standards ranged from 0.128 to 8.2 μg/mL for UV curve (y=0.2574x−0.2042, R2=0.9997) with a Limit of Quantitation, LOQ, (defined for a signal-to-noise ratio >10) of 4.1 ng on column, whereas calibration curve ranged 0.128-8.2 μg/ml for MS (y=11176x−1505.9) showing a correlation coefficient (r^2) equal to 0.9991.
A known amount (0.5 μg/mL) of the GlaB analyte (a spike) was added to treated brain sample. The samples and the samples plus spike were then analyzed. […]

[3] = tested on: murine glioma GL261 cells; test: Orthotopic GL261 glioma in mice, tumor volume (procedure A); assay type: in vivo, mice (C57BL/6); conditions: for tumor volume: every two days, N=7, vehicle ethanol:2-hydroxypropyl-beta-cyclodextrin 1:5
Method: Male wild type (C57BL/6) mice were inoculated with murine glioma cells (GL261, Leibniz-Institute DMSZ, ACC802) at the age of 8 weeks (animals weighing an average weight of 22 g). After being anesthetized by intraperitoneal injection of 50 mg/kg Zoletil anaesthetic (combination of tiletamine hypochloride and zolazepam hypochloride) associated with 10 mg/kg Rompun (xylazine), the animals were subjected to orthotopic injection (subcortical/striatum, […] anteroposterior, −2 mm lateral to the bregma) of GL261 cells (1×10^5 cells per mouse) using a stereotaxic apparatus to accurately and reproducibly reach the right striatal region. The cells, resuspended in 5 μl of phosphate buffer, were injected by the use of a Hamilton syringe connected to the stereotaxic apparatus.
GlaB dissolved in the vehicle constituted by ethanol (Sigma-Aldrich #51976): 2-hydroxypropyl-beta-cyclodextrin (Sigma-Aldrich #C0926) solution (10% (w/v) in H2O) in a 1:5 volume ratio was administered by intraperitoneal injections (ip, 35 mg/kg) and intranasally (in, 4.4 mg/kg), every two days after 7 days from the implantation of tumor cells for a total of 6 days of treatment. Intranasal administration was performed through the so-called “snort delivery”: drops of the medicament were sniffed by the animal, anesthetized with 2.5% Isofluorane, until reaching the upper nasal cavity.
The day after the last administration of GlaB, mice were perfused with phosphate buffer and then 4% PFA and their brain isolated, further fixed and frozen. After about 48 h each frozen brain was cut into subsequent coronal slices, 20 μm thick, collected at 100 μm intervals. The determination of tumor volume was performed by histological staining (hematoxylin and eosin) of the brain slices: the tumor mass is recognizable because it has a darker color compared to the remaining healthy tissue. The tumor volume is calculated through analysis of images obtained under a phase contrast microscope (ECLIPSE Ti-S, Nikon) using commercial software released in the public domain (ImageJ, National Institutes of Health of the United States) able to measure the tumor area in each slice, necessary for volume calculation.

## COc1cc(OC)c2c(=O)c(-c3ccc(OCC=C(C)C)c(OCC=C(C)C)c3)coc2c1 [GlaB, Glabrescione B]
[1]
  growth of GL261 tumor cells (MTT absorbance) compared to vehicle (DMSO): reduce their growth capacity; also recorded: significant reduction
[2]; C57BL/6, mouse, brain, other: nasal administration (intranasal), 1.44 mg/Kg, mice, two hours post one single nasal administration of GlaB/PEG-Cholane, read-out: estimated brain level concentration
  concentration at 2 h: 3600 ng/g
[2]; intranasally GlaB/PEG-Cholane treated mice vs control PEG-Cholane treated mice
  GlaB peak in extract ion chromatogram of brain extract (drug reaches brain): presence of GlaB peak
[2]; mice, two hours post one single nasal administration of GlaB/PEG-Cholane, HPLC-MS SIM m/z 451
  GlaB quantified in brain extract, amount on column: 6 ng on column
[3]; intranasal formulation in ethanol:2-hydroxypropyl-beta-cyclodextrin solution (1:5 by volume), 4.4 mg/kg
  tumor volume reduction: about 70%
[3]; intranasal, 4.4 mg/kg
  glioma volume in vivo compared to control solution: significantly reduce glioma volume
  tumor volume: 0.21 mm³
[3]; intraperitoneal, 35 mg/kg
  glioma volume in vivo compared to control solution: significantly reduce glioma volume
  tumor volume: 0.48 mm³
